Earlier results on five compounds are cited in patent US20150045422A1 (priority 2005, published 2015).

The test system of series [1] is Herpes Simplex Virus Type 2 (HSV2).

Regarding `CC1=C[C@H]2O[C@@H]3[C@H](O)C[C@](C)([C@@]2(CO)[C@H](O)C1=O)[C@]31CO1` [DON, Deoxynivalenol], the “PSR Potency in Human Cells (IC50) HL” value in the series with HL (lymphocyte) is 0.5 µg/mL. In addition, the “PSR Potency in Human Cells (IC50) HEp2” value in the series on HEp2 (epidermoid) is 0.25 µg/mL. Further, the “PSR Potency in Human Cells (IC50) HeLa” value with HeLa (uterine) was 1 µg/mL. Besides, the “PSR Potency in Human Cells (IC50) HSV2” value in series [1] is 0.094 µg/mL. Moreover, the “PSR Potency in Human Cells (IC50) HEK” value in the series with HEK (kidney) was 3 µg/mL.
Turning to `CC(=O)O[C@@H]1[C@@H](O)[C@H]2O[C@@H]3C=C(C)C(=O)[C@@H](O)[C@]3(CO)[C@]1(C)[C@]21CO1` [FusX, Fusarenon-X], the “PSR Potency in Human Cells (IC50) HL” value in the series with HL (lymphocyte) was 0.3 µg/mL. For the same compound, in the series on HeLa (uterine), the “PSR Potency in Human Cells (IC50) HeLa” value is 0.1 µg/mL. The “PSR Potency in Human Cells (IC50) HSV2” value in series [1] is 0.026 µg/mL. Besides, in the series on HEK (kidney), the “PSR Potency in Human Cells (IC50) HEK” value was 1 µg/mL.
As for `CC(=O)OC[C@]12C[C@H](O)C(C)=C[C@H]1O[C@@H]1[C@H](O)[C@@H](OC(C)=O)[C@@]2(C)[C@]12CO2` [NEOS, neosolaniol], the “PSR Potency in Human Cells (IC50) HL” value in the series on HL (lymphocyte) was 0.05 µg/mL. The “concentrations that did not decrease cell viability” value in the series on HEp-2 cells was “below 200 ng/ml”. In the series with HeLa (uterine), the “PSR Potency in Human Cells (IC50) HeLa” value is 0.1 µg/mL. The “PSR Potency in Human Cells (IC50) HSV2” value in series [1] was 0.052 µg/mL. In the series with HEK (kidney), the “PSR Potency in Human Cells (IC50) HEK” value was 0.06 µg/mL.
As for `CC1=C[C@H]2O[C@@H]3[C@H](O)[C@@H](O)[C@](C)([C@@]2(CO)[C@H](O)C1=O)[C@]31CO1` [NIV, Nivalenol], the “PSR Potency in Human Cells (IC50) HL” value with HL (lymphocyte) was 0.3 µg/mL. Moreover, in the series on HEp2 (epidermoid), the “PSR Potency in Human Cells (IC50) HEp2” value is 0.225 µg/mL. Further, the “PSR Potency in Human Cells (IC50) HeLa” value with HeLa (uterine) is 0.3 µg/mL. Besides, the “PSR Potency in Human Cells (IC50) HSV2” value in series [1] is 0.05 µg/mL. In addition, in the series with HEK (kidney), the “PSR Potency in Human Cells (IC50) HEK” value was 1 µg/mL.
Turning to Crotocin, in the series with HL (lymphocyte), the “PSR Potency in Human Cells (IC50) HL” value is 2 µg/mL. Further, the “PSR Potency in Human Cells (IC50) HEp2” value with HEp2 (epidermoid) was 0.25 µg/mL. Also, the “PSR Potency in Human Cells (IC50) HeLa” value in the series with HeLa (uterine) was 0.5 µg/mL. For the same compound, in the series with HEK (kidney), the “PSR Potency in Human Cells (IC50) HEK” value is 0.6 µg/mL.
